# Results taken from PMC4767141, “Discovery of Potent, Orally Bioavailable, Small-Molecule Inhibitors of WNT Signaling from a Cell-Based Pathway Screen” (Journal of Medicinal Chemistry, 2015).
# Assays:
# 5-HT6 (h) = biological target: T1, 5-HT6 (h) (Homo sapiens, UniProt P50406); assay: CEREP binding panel; settings: agonist radioligand, read-out: % Inhibition of Control Specific Binding
# T1 construct: purchased Millipore KinaseProfiler (kinases); Cerep (receptors and ion channels)
# CB1 (h) = biological target: T2, CB1 (h) (Homo sapiens, UniProt P21554); assay: CEREP binding panel; settings: agonist radioligand, read-out: % Inhibition of Control Specific Binding
# T2 construct: purchased Millipore KinaseProfiler (kinases); Cerep (receptors and ion channels)
# H1 (h) = biological target: T3, H1 (h) (Homo sapiens, UniProt P35367); assay: CEREP binding panel; settings: antagonist radioligand, read-out: % Inhibition of Control Specific Binding
# T3 construct: purchased Millipore KinaseProfiler (kinases); Cerep (receptors and ion channels)
# T3 sequence (P35367 whole entry): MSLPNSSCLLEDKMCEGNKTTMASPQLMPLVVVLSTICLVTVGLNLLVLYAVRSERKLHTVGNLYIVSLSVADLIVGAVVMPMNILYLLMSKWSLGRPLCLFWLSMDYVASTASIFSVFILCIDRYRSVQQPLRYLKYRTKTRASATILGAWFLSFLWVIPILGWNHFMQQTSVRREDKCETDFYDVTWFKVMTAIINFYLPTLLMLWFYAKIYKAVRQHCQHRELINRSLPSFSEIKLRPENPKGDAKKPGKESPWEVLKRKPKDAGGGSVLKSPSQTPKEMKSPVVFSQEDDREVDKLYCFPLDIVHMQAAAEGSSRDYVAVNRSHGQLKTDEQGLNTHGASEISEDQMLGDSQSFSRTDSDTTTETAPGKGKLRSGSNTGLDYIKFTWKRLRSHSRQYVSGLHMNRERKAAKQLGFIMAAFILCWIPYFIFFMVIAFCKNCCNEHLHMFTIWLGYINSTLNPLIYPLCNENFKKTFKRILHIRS
# DMPK = biological target: T4, DMPK (Homo sapiens, UniProt Q09013); assay: Millipore kinase panel; assay type: biochemical; settings: read-out: % Control
# T4 construct: purchased Millipore KinaseProfiler (kinases); Cerep (receptors and ion channels)
# SAPK3 = biological target: T5, SAPK3 (Homo sapiens, UniProt P53778); assay: Millipore kinase panel; assay type: biochemical; settings: read-out: % Control
# T5 construct: purchased Millipore KinaseProfiler (kinases); Cerep (receptors and ion channels)
# T5 sequence (P53778 whole entry): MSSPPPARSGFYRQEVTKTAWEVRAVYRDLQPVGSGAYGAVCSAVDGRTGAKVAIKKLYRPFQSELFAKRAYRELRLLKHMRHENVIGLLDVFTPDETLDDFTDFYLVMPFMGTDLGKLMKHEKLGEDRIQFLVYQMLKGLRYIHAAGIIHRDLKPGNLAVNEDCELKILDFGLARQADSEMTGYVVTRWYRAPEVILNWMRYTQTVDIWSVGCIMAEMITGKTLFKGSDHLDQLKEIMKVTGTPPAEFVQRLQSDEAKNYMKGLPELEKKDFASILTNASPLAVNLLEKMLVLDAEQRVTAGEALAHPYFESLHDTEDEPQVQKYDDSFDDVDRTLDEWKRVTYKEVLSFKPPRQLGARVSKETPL
# MAPK1 = biological target: T6, MAPK1 (Homo sapiens, UniProt P27361); assay: Millipore kinase panel; assay type: biochemical; settings: read-out: % Control
# T6 construct: purchased Millipore KinaseProfiler (kinases); Cerep (receptors and ion channels)
# FGFR4 = biological target: T7, FGFR4 (Homo sapiens, UniProt P22455); assay: Millipore kinase panel; assay type: biochemical; settings: read-out: % Control
# T7 construct: purchased Millipore KinaseProfiler (kinases); Cerep (receptors and ion channels)
# DAPK2 = biological target: T8, DAPK2 (Homo sapiens, UniProt Q9UIK4); assay: Millipore kinase panel; assay type: biochemical; settings: read-out: % Control
# T8 construct: purchased Millipore KinaseProfiler (kinases); Cerep (receptors and ion channels)
# PDGFRBETA = biological target: T9, PDGFRBETA (Homo sapiens, UniProt P09619); assay: Millipore kinase panel; assay type: biochemical; settings: read-out: % Control
# T9 construct: purchased Millipore KinaseProfiler (kinases); Cerep (receptors and ion channels)
# MAPKAP-K3 = biological target: T10, MAPKAP-K3 (Homo sapiens, UniProt Q16644); assay: Millipore kinase panel; assay type: biochemical; settings: read-out: % Control
# T10 construct: purchased Millipore KinaseProfiler (kinases); Cerep (receptors and ion channels)
# M3 (h) = biological target: T11, M3 (h) (Homo sapiens, UniProt P20309); assay: CEREP binding panel; settings: antagonist radioligand, read-out: % Inhibition of Control Specific Binding
# T11 construct: purchased Millipore KinaseProfiler (kinases); Cerep (receptors and ion channels)
# T11 sequence (P20309 whole entry): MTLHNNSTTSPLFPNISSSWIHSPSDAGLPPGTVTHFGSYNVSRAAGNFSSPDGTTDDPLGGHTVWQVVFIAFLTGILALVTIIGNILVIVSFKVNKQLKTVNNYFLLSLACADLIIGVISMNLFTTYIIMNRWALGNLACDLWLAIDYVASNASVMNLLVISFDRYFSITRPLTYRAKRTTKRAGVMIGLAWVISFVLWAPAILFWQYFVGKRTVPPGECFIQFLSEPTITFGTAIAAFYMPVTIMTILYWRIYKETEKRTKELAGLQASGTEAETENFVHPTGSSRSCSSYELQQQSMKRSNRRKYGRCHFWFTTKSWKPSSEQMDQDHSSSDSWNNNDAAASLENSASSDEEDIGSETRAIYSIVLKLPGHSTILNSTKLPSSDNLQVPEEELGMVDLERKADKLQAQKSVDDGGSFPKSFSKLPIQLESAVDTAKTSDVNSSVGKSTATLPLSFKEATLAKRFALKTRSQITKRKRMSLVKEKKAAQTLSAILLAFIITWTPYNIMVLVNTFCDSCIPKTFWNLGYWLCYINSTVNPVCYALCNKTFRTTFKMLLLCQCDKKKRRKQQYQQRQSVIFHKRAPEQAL
# MELK = biological target: T12, MELK (Homo sapiens, UniProt Q14680); assay: Millipore kinase panel; assay type: biochemical; settings: read-out: % Control
# T12 construct: purchased Millipore KinaseProfiler (kinases); Cerep (receptors and ion channels)
# T12 sequence (Q14680 whole entry): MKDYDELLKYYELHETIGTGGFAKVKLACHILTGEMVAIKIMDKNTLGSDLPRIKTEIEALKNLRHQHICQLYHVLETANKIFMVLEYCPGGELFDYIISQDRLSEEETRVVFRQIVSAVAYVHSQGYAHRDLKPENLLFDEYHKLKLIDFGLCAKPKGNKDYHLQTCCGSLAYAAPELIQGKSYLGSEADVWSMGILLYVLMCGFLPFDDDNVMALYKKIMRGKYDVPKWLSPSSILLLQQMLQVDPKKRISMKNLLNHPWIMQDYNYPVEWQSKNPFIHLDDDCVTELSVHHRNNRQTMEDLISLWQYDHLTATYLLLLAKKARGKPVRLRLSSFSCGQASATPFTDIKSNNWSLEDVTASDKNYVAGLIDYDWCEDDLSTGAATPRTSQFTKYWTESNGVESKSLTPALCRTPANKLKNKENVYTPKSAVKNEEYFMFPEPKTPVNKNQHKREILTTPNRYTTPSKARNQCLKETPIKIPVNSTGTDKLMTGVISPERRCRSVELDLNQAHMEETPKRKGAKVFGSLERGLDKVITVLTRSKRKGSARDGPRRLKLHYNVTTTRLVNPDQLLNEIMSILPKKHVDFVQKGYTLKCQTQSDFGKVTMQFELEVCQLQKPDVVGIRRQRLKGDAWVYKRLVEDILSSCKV
# RIPK2 = biological target: T13, RIPK2 (Homo sapiens, UniProt O43353); assay: Millipore kinase panel; assay type: biochemical; settings: read-out: % Control
# T13 construct: purchased Millipore KinaseProfiler (kinases); Cerep (receptors and ion channels)
# T13 sequence (O43353 whole entry): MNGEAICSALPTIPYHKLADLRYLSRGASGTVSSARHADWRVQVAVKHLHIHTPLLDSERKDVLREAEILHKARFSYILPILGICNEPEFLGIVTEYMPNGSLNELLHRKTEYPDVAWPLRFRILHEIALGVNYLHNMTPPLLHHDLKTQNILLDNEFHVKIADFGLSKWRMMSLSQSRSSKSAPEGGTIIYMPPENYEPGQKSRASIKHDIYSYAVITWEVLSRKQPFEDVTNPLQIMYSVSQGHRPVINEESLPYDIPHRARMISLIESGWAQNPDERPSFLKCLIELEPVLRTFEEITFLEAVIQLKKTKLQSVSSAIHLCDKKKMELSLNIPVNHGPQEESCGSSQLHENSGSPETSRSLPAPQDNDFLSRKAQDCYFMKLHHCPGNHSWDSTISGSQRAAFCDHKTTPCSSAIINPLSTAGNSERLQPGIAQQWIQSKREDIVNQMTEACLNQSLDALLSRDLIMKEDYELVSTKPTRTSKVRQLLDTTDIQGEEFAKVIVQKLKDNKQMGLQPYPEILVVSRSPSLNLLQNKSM
# IKKALPHA = biological target: T14, IKKALPHA (Homo sapiens, UniProt O15111); assay: Millipore kinase panel; assay type: biochemical; settings: read-out: % Control
# T14 construct: purchased Millipore KinaseProfiler (kinases); Cerep (receptors and ion channels)
# TXK = biological target: T15, TXK (Homo sapiens, UniProt P42681); assay: Millipore kinase panel; assay type: biochemical; settings: read-out: % Control
# T15 construct: purchased Millipore KinaseProfiler (kinases); Cerep (receptors and ion channels)
# PLK3 = biological target: T16, PLK3 (Homo sapiens, UniProt Q9H4B4); assay: Millipore kinase panel; assay type: biochemical; settings: read-out: % Control
# T16 construct: purchased Millipore KinaseProfiler (kinases); Cerep (receptors and ion channels)
# 5-HT1B = biological target: T17, 5-HT1B (Rattus norvegicus, UniProt P28564); assay: CEREP binding panel; settings: antagonist radioligand, read-out: % Inhibition of Control Specific Binding
# T17 construct: purchased Millipore KinaseProfiler (kinases); Cerep (receptors and ion channels)
# TRKB = biological target: T18, TRKB (Homo sapiens, UniProt Q16620); assay: Millipore kinase panel; assay type: biochemical; settings: read-out: % Control
# T18 construct: purchased Millipore KinaseProfiler (kinases); Cerep (receptors and ion channels)
# MSSK1 = biological target: T19, MSSK1 (Homo sapiens, UniProt Q9UPE1); assay: Millipore kinase panel; assay type: biochemical; settings: read-out: % Control
# T19 construct: purchased Millipore KinaseProfiler (kinases); Cerep (receptors and ion channels)
# T19 sequence (Q9UPE1 whole entry): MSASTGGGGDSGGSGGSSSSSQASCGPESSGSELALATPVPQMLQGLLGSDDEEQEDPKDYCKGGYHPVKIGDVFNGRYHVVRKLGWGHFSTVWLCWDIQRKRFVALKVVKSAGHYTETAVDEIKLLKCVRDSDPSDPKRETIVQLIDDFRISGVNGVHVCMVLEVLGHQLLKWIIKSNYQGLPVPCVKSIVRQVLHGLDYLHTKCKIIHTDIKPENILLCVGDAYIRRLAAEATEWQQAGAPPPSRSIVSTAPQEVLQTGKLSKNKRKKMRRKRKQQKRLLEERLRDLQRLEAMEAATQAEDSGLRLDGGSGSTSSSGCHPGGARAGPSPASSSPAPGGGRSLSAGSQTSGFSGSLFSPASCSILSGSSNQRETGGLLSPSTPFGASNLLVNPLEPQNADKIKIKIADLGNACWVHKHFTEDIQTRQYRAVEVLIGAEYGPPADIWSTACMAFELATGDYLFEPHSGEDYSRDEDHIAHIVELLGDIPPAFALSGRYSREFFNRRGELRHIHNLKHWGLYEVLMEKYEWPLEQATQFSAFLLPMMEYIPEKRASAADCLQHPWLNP
# PAR-1BALPHA = biological target: T20, PAR-1BALPHA (Homo sapiens, UniProt Q7KZI7); assay: Millipore kinase panel; assay type: biochemical; settings: read-out: % Control
# T20 construct: purchased Millipore KinaseProfiler (kinases); Cerep (receptors and ion channels)
# CAMKIV = biological target: T21, CAMKIV (Homo sapiens, UniProt Q16566); assay: Millipore kinase panel; assay type: biochemical; settings: read-out: % Control
# T21 construct: purchased Millipore KinaseProfiler (kinases); Cerep (receptors and ion channels)
# IRAK1 = biological target: T22, IRAK1 (Homo sapiens, UniProt P51617); assay: Millipore kinase panel; assay type: biochemical; settings: read-out: % Control
# T22 construct: purchased Millipore KinaseProfiler (kinases); Cerep (receptors and ion channels)
# GABA (non-selective) = assay: CEREP binding panel; settings: 10 μM, agonist radioligand
# PTK5 = biological target: T23, PTK5 (Homo sapiens, UniProt P42685); assay: Millipore kinase panel; assay type: biochemical; settings: read-out: % Control
# T23 construct: purchased Millipore KinaseProfiler (kinases); Cerep (receptors and ion channels)
# FER = biological target: T24, FER (Homo sapiens, UniProt P16591); assay: Millipore kinase panel; assay type: biochemical; settings: read-out: % Control
# T24 construct: purchased Millipore KinaseProfiler (kinases); Cerep (receptors and ion channels)
# EPHB3 = biological target: T25, EPHB3 (Homo sapiens, UniProt P54753); assay: Millipore kinase panel; assay type: biochemical; settings: read-out: % Control
# T25 construct: purchased Millipore KinaseProfiler (kinases); Cerep (receptors and ion channels)
# μ (MOP) (h) = biological target: T26, μ (MOP) (h) (Homo sapiens, UniProt P35372); assay: CEREP binding panel; settings: agonist radioligand, read-out: % Inhibition of Control Specific Binding
# T26 construct: purchased Millipore KinaseProfiler (kinases); Cerep (receptors and ion channels)
# MRCKALPHA = biological target: T27, MRCKALPHA (Homo sapiens, UniProt Q5VT25); assay: Millipore kinase panel; assay type: biochemical; settings: read-out: % Control
# T27 construct: purchased Millipore KinaseProfiler (kinases); Cerep (receptors and ion channels)
# T27 sequence (Q5VT25 whole entry): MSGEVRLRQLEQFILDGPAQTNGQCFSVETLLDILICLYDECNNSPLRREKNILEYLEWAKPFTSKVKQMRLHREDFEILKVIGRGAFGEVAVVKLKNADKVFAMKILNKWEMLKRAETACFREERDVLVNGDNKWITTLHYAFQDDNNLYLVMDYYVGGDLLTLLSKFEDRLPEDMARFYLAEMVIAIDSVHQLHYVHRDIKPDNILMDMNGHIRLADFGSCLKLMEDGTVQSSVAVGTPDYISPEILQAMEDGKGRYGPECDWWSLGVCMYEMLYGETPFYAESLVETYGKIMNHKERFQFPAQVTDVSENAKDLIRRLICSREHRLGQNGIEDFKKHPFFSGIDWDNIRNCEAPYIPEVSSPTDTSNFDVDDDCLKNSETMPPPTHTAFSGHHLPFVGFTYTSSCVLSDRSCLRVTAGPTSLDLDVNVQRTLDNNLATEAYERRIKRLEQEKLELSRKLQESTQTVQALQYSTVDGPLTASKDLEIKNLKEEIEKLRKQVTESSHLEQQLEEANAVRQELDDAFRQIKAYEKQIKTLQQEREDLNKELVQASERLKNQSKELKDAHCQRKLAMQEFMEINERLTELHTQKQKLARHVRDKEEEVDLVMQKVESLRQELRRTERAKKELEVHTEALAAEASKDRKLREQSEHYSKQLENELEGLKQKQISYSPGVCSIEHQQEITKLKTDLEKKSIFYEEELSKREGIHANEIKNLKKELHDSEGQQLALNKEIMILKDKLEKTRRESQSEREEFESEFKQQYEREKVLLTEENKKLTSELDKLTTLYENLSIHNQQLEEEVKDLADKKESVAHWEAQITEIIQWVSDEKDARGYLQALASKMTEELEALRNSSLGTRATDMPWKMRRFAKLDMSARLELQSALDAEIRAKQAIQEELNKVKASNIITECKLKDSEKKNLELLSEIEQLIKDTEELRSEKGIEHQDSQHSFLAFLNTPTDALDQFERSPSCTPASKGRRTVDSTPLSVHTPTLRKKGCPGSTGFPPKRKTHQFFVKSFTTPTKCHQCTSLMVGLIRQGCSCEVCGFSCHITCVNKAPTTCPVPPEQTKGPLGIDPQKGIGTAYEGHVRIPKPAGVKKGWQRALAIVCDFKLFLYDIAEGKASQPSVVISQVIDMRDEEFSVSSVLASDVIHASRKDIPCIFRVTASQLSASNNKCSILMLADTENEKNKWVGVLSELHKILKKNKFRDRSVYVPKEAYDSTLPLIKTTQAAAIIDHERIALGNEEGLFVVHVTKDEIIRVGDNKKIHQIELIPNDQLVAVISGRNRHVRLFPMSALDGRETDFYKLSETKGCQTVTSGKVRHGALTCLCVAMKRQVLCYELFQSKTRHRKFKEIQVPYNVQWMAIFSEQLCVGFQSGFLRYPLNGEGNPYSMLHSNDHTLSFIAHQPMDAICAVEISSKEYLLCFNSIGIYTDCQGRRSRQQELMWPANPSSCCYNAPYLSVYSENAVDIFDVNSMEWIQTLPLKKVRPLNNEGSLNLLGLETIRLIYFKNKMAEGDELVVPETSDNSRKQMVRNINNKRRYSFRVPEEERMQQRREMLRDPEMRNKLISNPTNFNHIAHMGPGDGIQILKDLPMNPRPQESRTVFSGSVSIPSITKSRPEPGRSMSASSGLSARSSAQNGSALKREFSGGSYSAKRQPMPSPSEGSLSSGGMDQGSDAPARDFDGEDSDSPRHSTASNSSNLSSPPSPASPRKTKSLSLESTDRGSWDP
# RET = biological target: T28, RET (Homo sapiens, UniProt P07949); assay: Millipore kinase panel; assay type: biochemical; settings: read-out: % Control
# T28 construct: purchased Millipore KinaseProfiler (kinases); Cerep (receptors and ion channels)
# DAPK1 = biological target: T29, DAPK1 (Homo sapiens, UniProt P53355); assay: Millipore kinase panel; assay type: biochemical; settings: read-out: % Control
# T29 construct: purchased Millipore KinaseProfiler (kinases); Cerep (receptors and ion channels)
# FAK = biological target: T30, FAK (Homo sapiens, UniProt Q05397); assay: Millipore kinase panel; assay type: biochemical; settings: read-out: % Control
# T30 construct: purchased Millipore KinaseProfiler (kinases); Cerep (receptors and ion channels)
# ALK = biological target: T31, ALK (Homo sapiens, UniProt Q9UM73); assay: Millipore kinase panel; assay type: biochemical; settings: read-out: % Control
# T31 construct: purchased Millipore KinaseProfiler (kinases); Cerep (receptors and ion channels)
# PKCMU = biological target: T32, PKCMU (Homo sapiens, UniProt Q15139); assay: Millipore kinase panel; assay type: biochemical; settings: read-out: % Control
# T32 construct: purchased Millipore KinaseProfiler (kinases); Cerep (receptors and ion channels)
# PYK2 = biological target: T33, PYK2 (Homo sapiens, UniProt Q14289); assay: Millipore kinase panel; assay type: biochemical; settings: read-out: % Control
# T33 construct: purchased Millipore KinaseProfiler (kinases); Cerep (receptors and ion channels)
# PRAK = biological target: T34, PRAK (Homo sapiens, UniProt Q8IW41); assay: Millipore kinase panel; assay type: biochemical; settings: read-out: % Control
# T34 construct: purchased Millipore KinaseProfiler (kinases); Cerep (receptors and ion channels)
# ITK = biological target: T35, ITK (Homo sapiens, UniProt Q08881); assay: Millipore kinase panel; assay type: biochemical; settings: read-out: % Control
# T35 construct: purchased Millipore KinaseProfiler (kinases); Cerep (receptors and ion channels)
# LCK = biological target: T36, LCK (Homo sapiens, UniProt P06239); assay: Millipore kinase panel; assay type: biochemical; settings: read-out: % Control
# T36 construct: purchased Millipore
# AT1 (h) = biological target: T37, AT1 (h) (Homo sapiens, UniProt P30556); assay: CEREP binding panel; settings: antagonist radioligand, read-out: % Inhibition of Control Specific Binding
# T37 construct: purchased Millipore KinaseProfiler (kinases); Cerep (receptors and ion channels)
# [1] = tested on: Ca2+ channel (L, verapamil site) (phenylalkylamine); assay: CEREP binding panel; settings: 10 μM, antagonist radioligand
# PRKX = biological target: T38, PRKX (Homo sapiens, UniProt P51817); assay: Millipore kinase panel; assay type: biochemical; settings: read-out: % Control
# T38 construct: purchased Millipore KinaseProfiler (kinases); Cerep (receptors and ion channels)
# EPHB1 = biological target: T39, EPHB1 (Homo sapiens, UniProt P54762); assay: Millipore kinase panel; assay type: biochemical; settings: read-out: % Control
# T39 construct: purchased Millipore KinaseProfiler (kinases); Cerep (receptors and ion channels)
# PAK5 = biological target: T40, PAK5 (Homo sapiens, UniProt Q9P286); assay: Millipore kinase panel; assay type: biochemical; settings: read-out: % Control
# T40 construct: purchased Millipore KinaseProfiler (kinases); Cerep (receptors and ion channels)
# CHK2 = biological target: T41, CHK2 (Homo sapiens, UniProt O96017); assay: Millipore kinase panel; assay type: biochemical; settings: read-out: % Control
# T41 construct: purchased Millipore KinaseProfiler (kinases); Cerep (receptors and ion channels)
# [2] = Caco-2 Papp determination; assay type: in vitro ADME, human
compound,measurement,setting,value
"O=C1NCCC12CCN(c1c(Cl)cncc1-c1ccc(N3CCOCC3)cc1)CC2 [Compound 44, 8-(3-Chloro-5-(4-morpholin-4-ylphenyl)pyridin-4-yl)-2,8-diazaspiro[4.5]decan-1-one]",inhibition at 10 µM,5-HT6 (h),-5%
same,inhibition at 10 µM,CB1 (h),1%
same,inhibition at 10 µM,H1 (h),-5%
same,remaining activity at 1 µM,DMPK,-7%
same,remaining activity at 1 µM,SAPK3,35%
same,remaining activity at 1 µM,MAPK1,10%
same,remaining activity at 1 µM,FGFR4,7%
same,remaining activity at 1 µM,DAPK2,5%
same,remaining activity at 1 µM,PDGFRBETA,13%
same,remaining activity at 1 µM,MAPKAP-K3,-3%
same,inhibition at 10 µM,M3 (h),47%
same,remaining activity at 1 µM,MELK,-19%
same,remaining activity at 1 µM,RIPK2,3%
same,remaining activity at 1 µM,IKKALPHA,22%
same,remaining activity at 1 µM,TXK,4%
same,remaining activity at 1 µM,PLK3,-17%
same,inhibition at 10 µM,5-HT1B,-29%
same,remaining activity at 1 µM,TRKB,2%
same,remaining activity at 1 µM,MSSK1,-10%
same,remaining activity at 1 µM,PAR-1BALPHA,-6%
same,remaining activity at 1 µM,CAMKIV,-8%
same,remaining activity at 1 µM,IRAK1,4%
same,% Inhibition of Control Specific Binding,GABA (non-selective),10%
same,remaining activity at 1 µM,PTK5,0%
same,remaining activity at 1 µM,FER,11%
same,remaining activity at 1 µM,EPHB3,17%
same,inhibition at 10 µM,μ (MOP) (h),9%
same,remaining activity at 1 µM,MRCKALPHA,11%
same,remaining activity at 1 µM,RET,14%
same,remaining activity at 1 µM,DAPK1,0%
same,remaining activity at 1 µM,FAK,-14%
same,remaining activity at 1 µM,ALK,-6%
same,remaining activity at 1 µM,PKCMU,-22%
same,remaining activity at 1 µM,PYK2,-6%
same,remaining activity at 1 µM,PRAK,-8%
same,remaining activity at 1 µM,ITK,16%
same,remaining activity at 1 µM,LCK,13%
same,inhibition at 10 µM,AT1 (h),2%
same,% Inhibition of Control Specific Binding,[1],9%
same,remaining activity at 1 µM,PRKX,1%
same,remaining activity at 1 µM,EPHB1,-1%
same,remaining activity at 1 µM,PAK5,8%
same,remaining activity at 1 µM,CHK2,15%
same,"Caco-2 efflux (efflux ratio, ER)",[2],no efflux
same,"Papp at 2 h, 1 μM","[2]; human, Caco-2, 1 μM, pH 7.4",37 ×10⁻⁶ cm/s
